According to patent publication US5869482A, “Dipyridio[2,3-b:3',2'-] azepines and their use in the prevention or treatment of HIV infection” (priority 1997, dated 1999):

Assays:
HIV-1 RT (Y181C) mutant = molecular target: T1, HIV-1 RT (Y181C) mutant (Human immunodeficiency virus type 1 (BRU ISOLATE), UniProt P03367, Y780C); assay: biochemical; parameters: species or system Human Immunodeficiency Virus (HIV-1); conditions: 1 μM compound; RNA-dependent DNA polymerase activity; read-out: RT (Y181C) % inh. (1 μM)
T1 construct: Y181C by site-directed mutagenesis

HIV-1 RT (K103N) mutant = molecular target: T2, HIV-1 RT (K103N) mutant (Human immunodeficiency virus type 1 group M subtype B, UniProt P03367, K702N); assay: biochemical; parameters: species or system Human Immunodeficiency Virus (HIV-1); conditions: 1 μM compound; RNA-dependent DNA polymerase activity; read-out: RT (K103N) % inh. (1 μM)
T2 construct: Reverse transcriptase enzyme from the LAV strain; made in house; host or cells: E. coli JM109 with clone pBRTprtl+ in vector pIBI21 (stated for the wild-type enzyme; inferred for the K103N mutant)

HIV-1 RT (P236L) mutant = molecular target: T3, HIV-1 RT (P236L) mutant (Human immunodeficiency virus type 1 (BRU ISOLATE), UniProt P03367, P835L); type: biochemical, Human Immunodeficiency Virus (HIV-1); conditions: 1 μM compound; RNA-dependent DNA polymerase activity
T3 construct: P236L mutant

[1] = molecular target: HIV-1 reverse transcriptase, wild type (WT) (Human immunodeficiency virus type 1 (BRU ISOLATE), UniProt P03367); assay: Reverse Transcriptase (RT) assay, wild type enzyme; type: biochemical, Human Immunodeficiency Virus (HIV-1), LAV strain; conditions: 1 μM compound; RNA-dependent DNA polymerase activity; read-out: RT (WT) % inh. (1 μM)
Description: Utilizing the Reverse Transcriptase (RT) Assay described below, compounds can be tested for their ability to inhibit the RNA-dependent DNA polymerase activity of HIV-1 RT.
Among the enzymes for which Human Immunodeficiency Virus (HIV-1) encodes is a reverse transcriptase (1), so-named because it transcribes a DNA copy from an RNA template. This activity can be quantitatively measured in a cell-free enzyme assay, which has been previously described (2), and is based upon the observation that reverse transcriptase is able to use a synthetic template [poly r(C) primed with oligo d(G)] to transcribe a radio-labelled, acid-precipitable DNA strand utilizing ^3 H-dGTP as a substrate. The assay described below utilizes the wild type (WT) enzyme, which is the predominant form of the enzyme observed in patients infected with HIV-1.
Reverse transcriptase enzyme from the LAV strain of Human Immunodeficiency Virus (HIV-1) (1) was isolated from the bacterial strain JM109 (3) expressing the DNA clone pBRTprtl+ (2) which is under the control of the lac promotor in the expression vector pIBI21 (4). […] At that time the repressor inhibitor IPTG (isopropyl β-D-thiogalactopyranoside) is added to 0.5 mM, and the mixture is incubated for 2 additional hours. […] The cells are lysed by the addition of 0.2% NP-40 and brought to 1M NaCl. […]

HIV-1 RT (L100I) mutant = molecular target: T4, HIV-1 RT (L100I) mutant (Human immunodeficiency virus type 1 (BRU ISOLATE), UniProt P03367, L699I); type: biochemical, Human Immunodeficiency Virus (HIV-1); conditions: 1 μM compound; RNA-dependent DNA polymerase activity
T4 construct: L100I mutant

With `CCN1c2ncccc2C=Cc2cccnc21` [Example 1, 11-Ethyl-dipyrido[2,3-b:3',2'-f]azepine] the inhibition at 1 µM (HIV-1 RT (Y181C) mutant) was 53%, the inhibition at 1 µM (HIV-1 RT (K103N) mutant) was 73% and the “RT (P236L) % inh. (1 μM)” value (HIV-1 RT (P236L) mutant) was 99%. For the same compound, the inhibition at 1 µM [1] was 98% and the “RT (L100I) % inh. (1 μM)” value (HIV-1 RT (L100I) mutant) was 81%.

With `C1=Cc2cccnc2N(C2CC2)c2ncccc21` [Example 2, 11-Cyclopropyl-dipyrido[2,3-b:3',2'-f]azepine] the inhibition at 1 µM (HIV-1 RT (Y181C) mutant) was 41%, the inhibition at 1 µM (HIV-1 RT (K103N) mutant) was 55% and the “RT (P236L) % inh. (1 μM)” value (HIV-1 RT (P236L) mutant) was 98%. The inhibition at 1 µM [1] was 97% and the “RT (L100I) % inh. (1 μM)” value (HIV-1 RT (L100I) mutant) was 80%.
